PubChem BioAssay AID1259407 (Chemical Carcinogenesis Research Information System (CCRIS), 2018)
Activity calls are given as the source filed them. The rule behind the calls is not given here.

System: CCRIS mutagenicity, Ames/micronucleus/aberration tests
Test: CCRIS mutagenicity studies
[1] = Test System: AMES SALMONELLA TYPHIMURIUM, Strain/Indicator: TA100, Metabolic Activation: RAT, LIVER, S-9, PCB, Method: PREINCUBATION
[2] = Test System: E. COLI, Strain/Indicator: WP2 UVRA, Metabolic Activation: NONE, Method: STANDARD PLATE
[3] = Test System: AMES SALMONELLA TYPHIMURIUM, Strain/Indicator: TA98, Metabolic Activation: NONE, Method: STANDARD PLATE
[4] = Test System: AMES SALMONELLA TYPHIMURIUM, Strain/Indicator: TA98, Metabolic Activation: RAT, LIVER, S-9, AROCLOR 1254, Method: STANDARD PLATE
[5] = Test System: AMES SALMONELLA TYPHIMURIUM, Strain/Indicator: TA100, Metabolic Activation: NONE, Method: STANDARD PLATE
[6] = Test System: AMES SALMONELLA TYPHIMURIUM, Strain/Indicator: TA100, Metabolic Activation: RAT, LIVER, S-9, AROCLOR 1254, Method: STANDARD PLATE
[7] = Test System: AMES SALMONELLA TYPHIMURIUM, Strain/Indicator: TA1535, Metabolic Activation: NONE, Method: STANDARD PLATE
[8] = Test System: AMES SALMONELLA TYPHIMURIUM, Strain/Indicator: TA1535, Metabolic Activation: RAT, LIVER, S-9, AROCLOR 1254, Method: STANDARD PLATE
[9] = Test System: AMES SALMONELLA TYPHIMURIUM, Strain/Indicator: TA1537, Metabolic Activation: NONE, Method: STANDARD PLATE
[10] = Test System: AMES SALMONELLA TYPHIMURIUM, Strain/Indicator: TA1537, Metabolic Activation: RAT, LIVER, S-9, AROCLOR 1254, Method: STANDARD PLATE

Nc1ccc(Cl)cc1N
mutagenic call (End Point: IN VITRO CHROMOSOMAL ABERRATIONS, Test System: CHL CELLS, Metabolic Activation: NONE): active; positive (structural changes) | mutagenic call (End Point: IN VITRO CHROMOSOMAL ABERRATIONS, Test System: CHL CELLS, Metabolic Activation: RAT, LIVER, S-9, SODIUM PHENOBARBITAL AND 5,6-BENZOFLAVONE): active; positive (structural changes) | mutagenic call (End Point: IN VITRO CHROMOSOMAL ABERRATIONS, Test System: CHO-LB CELLS, Metabolic Activation: NONE): active; positive | mutagenic call (End Point: IN VITRO CHROMOSOMAL ABERRATIONS, Test System: CHO-LB CELLS, Metabolic Activation: RAT, LIVER, S-9, AROCLOR 1254): inactive; negative | mutagenic call (End Point: IN VIVO MICRONUCLEUS, Test System: HEPATOCYTES, Species: RAT, Strain/Sex: FISHER 344 OR SD/MALE, Route: ORAL OR IP): inactive; negative | mutagenic call (End Point: IN VIVO MICRONUCLEUS, Test System: PERIPHERAL BLOOD RETICULOCYTES, Species: RAT, Strain/Sex: FISHER 344 OR SD/MALE, Route: ORAL OR IP): inactive; negative | mutagenic call (Test System: AMES SALMONELLA TYPHIMURIUM, Strain/Indicator: TA97, Metabolic Activation: HAMSTER, LIVER, S-9, AROCLOR 1254 (10%), Method: PREINCUBATION): active; positive | mutagenic call (Test System: AMES SALMONELLA TYPHIMURIUM, Strain/Indicator: TA97, Metabolic Activation: NONE, Method: PREINCUBATION): inactive; negative | mutagenic call (Test System: AMES SALMONELLA TYPHIMURIUM, Strain/Indicator: TA97, Metabolic Activation: RAT, LIVER, S-9, AROCLOR 1254 (10%), Method: PREINCUBATION): active; positive | mutagenic call (Test System: AMES SALMONELLA TYPHIMURIUM, Strain/Indicator: TA98, Metabolic Activation: HAMSTER, LIVER, S-9, AROCLOR 1254 (10%), Method: PREINCUBATION): active; positive | mutagenic call (Test System: AMES SALMONELLA TYPHIMURIUM, Strain/Indicator: TA98, Metabolic Activation: NONE, Method: PREINCUBATION): inactive; negative | mutagenic call (Test System: AMES SALMONELLA TYPHIMURIUM, Strain/Indicator: TA98, Metabolic Activation: RAT, LIVER, S-9, AROCLOR 1254 (10%), Method: PREINCUBATION): active; positive | mutagenic call (Test System: AMES SALMONELLA TYPHIMURIUM, Strain/Indicator: TA98, Metabolic Activation: RAT, LIVER, S-9, PCB, Method: PREINCUBATION): active; positive | mutagenic call (Test System: AMES SALMONELLA TYPHIMURIUM, Strain/Indicator: TA100, Metabolic Activation: HAMSTER, LIVER, S-9, AROCLOR 1254 (10%), Method: PREINCUBATION): active; positive | mutagenic call (Test System: AMES SALMONELLA TYPHIMURIUM, Strain/Indicator: TA100, Metabolic Activation: NONE, Method: PREINCUBATION): inactive; negative | mutagenic call (Test System: AMES SALMONELLA TYPHIMURIUM, Strain/Indicator: TA100, Metabolic Activation: RAT, LIVER, S-9, AROCLOR 1254 (10%), Method: PREINCUBATION): active; positive | mutagenic call [1]: active; positive | mutagenic call (Test System: AMES SALMONELLA TYPHIMURIUM, Strain/Indicator: TA1535, Metabolic Activation: HAMSTER, LIVER, S-9, AROCLOR 1254 (10%), Method: PREINCUBATION): inactive; negative | mutagenic call (Test System: AMES SALMONELLA TYPHIMURIUM, Strain/Indicator: TA1535, Metabolic Activation: NONE, Method: PREINCUBATION): inactive; negative | mutagenic call (Test System: AMES SALMONELLA TYPHIMURIUM, Strain/Indicator: TA1535, Metabolic Activation: RAT, LIVER, S-9, AROCLOR 1254 (10%), Method: PREINCUBATION): inactive; negative | mutagenic call (Test System: E. COLI, Strain/Indicator: WP2 UVRA, Metabolic Activation: HAMSTER, LIVER, S-9, AROCLOR 1254, Method: STANDARD PLATE): inactive; negative | mutagenic call (Test System: E. COLI, Strain/Indicator: WP2 UVRA, Metabolic Activation: MOUSE, LIVER, S-9, AROCLOR 1254, Method: STANDARD PLATE): inactive; negative | mutagenic call (Test System: E. COLI, Strain/Indicator: WP2 UVRA, Metabolic Activation: MOUSE, LIVER, S-9, Method: STANDARD PLATE): inactive; negative | mutagenic call [2]: inactive; negative | mutagenic call (Test System: E. COLI, Strain/Indicator: WP2 UVRA, Metabolic Activation: RAT, LIVER, S-9, Method: STANDARD PLATE): inactive; negative | mutagenic call (Test System: UDS RODENT HEPATOCYTES, Strain/Indicator: THY INCORP (NON-S-PHASE), Metabolic Activation: NONE, Method: AUTORADIOGRAPHY): active; positive

O=C1CN=C(c2ccccc2)c2cc([N+](=O)[O-])ccc2N1
mutagenic call [3]: inactive; negative | mutagenic call [4]: inactive; negative | mutagenic call [5]: inactive; negative | mutagenic call [6]: inactive; negative | mutagenic call (Test System: AMES SALMONELLA TYPHIMURIUM, Strain/Indicator: TA102, Metabolic Activation: NONE, Method: STANDARD PLATE): inactive; negative | mutagenic call (Test System: AMES SALMONELLA TYPHIMURIUM, Strain/Indicator: TA102, Metabolic Activation: RAT, LIVER, S-9, AROCLOR 1254, Method: STANDARD PLATE): inactive; negative | mutagenic call [7]: inactive; negative | mutagenic call [8]: inactive; negative | mutagenic call [9]: inactive; negative | mutagenic call [10]: inactive; negative | mutagenic call [2]: inactive; negative | mutagenic call (Test System: E. COLI, Strain/Indicator: WP2 UVRA, Metabolic Activation: RAT, LIVER, S-9, AROCLOR 1254, Method: STANDARD PLATE): inactive; negative

COC(=O)[C@@H](C)CN=[N+]=[N-]
mutagenic call [1]: active; positive

O=c1c2ccccc2[se]n1-c1ccccc1
mutagenic call [3]: inactive; negative | mutagenic call (Test System: AMES SALMONELLA TYPHIMURIUM, Strain/Indicator: TA98, Metabolic Activation: RAT LIVER S-9, PHENOBARBITAL AND 5,6-BENZOFLAVONE, Method: STANDARD PLATE): inactive; negative | mutagenic call [5]: inactive; negative | mutagenic call (Test System: AMES SALMONELLA TYPHIMURIUM, Strain/Indicator: TA100, Metabolic Activation: RAT LIVER S-9, PHENOBARBITAL AND 5,6-BENZOFLAVONE, Method: STANDARD PLATE): inactive; negative | mutagenic call [7]: inactive; negative | mutagenic call (Test System: AMES SALMONELLA TYPHIMURIUM, Strain/Indicator: TA1535, Metabolic Activation: RAT LIVER S-9, PHENOBARBITAL AND 5,6-BENZOFLAVONE, Method: STANDARD PLATE): inactive; negative | mutagenic call [9]: inactive; negative | mutagenic call (Test System: AMES SALMONELLA TYPHIMURIUM, Strain/Indicator: TA1537, Metabolic Activation: RAT LIVER S-9, PHENOBARBITAL AND 5,6-BENZOFLAVONE, Method: STANDARD PLATE): inactive; negative | mutagenic call (Test System: E.COLI, Strain/Indicator: WP2 UVRA, Metabolic Activation: NONE, Method: STANDARD PLATE): inactive; negative | mutagenic call (Test System: E.COLI, Strain/Indicator: WP2 UVRA, Metabolic Activation: RAT LIVER S-9, PHENOBARBITAL AND 5,6-BENZOFLAVONE, Method: STANDARD PLATE): inactive; negative

CNCCCN1c2ccccc2CCc2ccccc21
mutagenic call [3]: inactive; negative | mutagenic call [4]: inactive; negative | mutagenic call [5]: inactive; negative | mutagenic call [6]: inactive; negative | mutagenic call [7]: inactive; negative | mutagenic call [8]: inactive; negative | mutagenic call [9]: inactive; negative | mutagenic call [10]: inactive; negative

CC(=O)Nc1cc(O)c2ccc3cccc4ccc1c2c34
mutagenic call (Test System: AMES SALMONELLA TYPHIMURIUM, Strain/Indicator: TA98(1,8-DNP6), Metabolic Activation: NONE, Method: STANDARD PLATE): active; positive | mutagenic call (Test System: AMES SALMONELLA TYPHIMURIUM, Strain/Indicator: TA98(1,8-DNP6), Metabolic Activation: RAT, LIVER, S-9, AROCLOR 1254, Method: STANDARD PLATE): active; positive | mutagenic call [3]: active; positive | mutagenic call [4]: active; positive | mutagenic call (Test System: AMES SALMONELLA TYPHIMURIUM, Strain/Indicator: YG1024, Metabolic Activation: NONE, Method: STANDARD PLATE): active; positive | mutagenic call (Test System: AMES SALMONELLA TYPHIMURIUM, Strain/Indicator: YG1024, Metabolic Activation: RAT, LIVER, S-9, AROCLOR 1254, Method: STANDARD PLATE): active; positive
